According to publication PMC9597602, “Metal Complexes as Antifungals? From a Crowd-Sourced Compound Library to the First In Vivo Experiments” (JACS Au, 2022):
Entries after “also recorded” stand apart in the source; their conditions may differ.

What was measured:
[1] = test system: Cryptococcus neoformans H99 ATCC 208821 type strain; test: Antifungal MIC assay; assay type: cell-based; conditions: for MIC Cryptococcus neoformans ATCC 208821 / MIC50 Cryptococcus neoformans ATCC 208821 / MIC: extended panel; for MIC Cryptococcus neoformans ATCC 208821 / MIC: second batch, ≥80 or ≥50% inhibition; for MIC Cn: initial CO-ADD dose-response screening, ≥80% growth inhibition; for MIC50 Cryptococcus neoformans ATCC 208821: 50% inhibition, MIC score 2; for MIC: read-out: MIC* Cryptococcus neoformans ATCC 208821
How it was run: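 MIC is the lowest concentration at which growth fell by at least 80% (optically clear to slightly hazy, CLSI M27 score 0–1). Cells in YNB at a final 2.5 × 10^3 CFU/mL were incubated with compound for 36 h at 35 °C, unshaken.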

[2] = test system: G. mellonella larvae; test: Galleria mellonella in vivo toxicity assay; conditions: 10 μL of the highest concentration injected, monitored 6 days
Experimental: Based on criteria of overall antifungal activity, cytotoxicity, and hemolysis as well as compound availability, we selected compounds Co1, Ag2, Eu1, Ir1, Pt1, Pt2, Pt4, Pt5, Au1, Au2, and Au4 to conduct a preliminary in vivo toxicity assay. […] The compounds were dissolved in DMSO and diluted to the highest possible final concentration (Table 3). The larvae were then monitored for 6 days for survival and health using the G. mellonella Health Index Scoring System.[111] […] For the other compounds, no detrimental effects could be observed in the larvae over the monitoring period. […] Nevertheless, factors such as the metabolism, excretion, and/or accumulation of the various metal complexes and their metabolites will still need to be studied more rigorously in rodent models if they are to be advanced into the preclinical pipeline.
The toxicity of compounds was tested in vivo using the G. mellonella model using our previously described methods,[61] Briefly, G. mellonella larvae were reared in a controlled environmental room at Macquarie University, Sydney, Australia, at 30 °C and 65% humidity with a 12-h light/dark cycle. Larvae (200–250 mg) were individually injected with 10 μL of chemical into the last right pro-leg using a 100 μL syringe (Hamilton Ltd.). Each compound was dissolved in DMSO at the maximum concentration given in Table 3 and also diluted in water to final concentrations of 100, 10, and 1 μM. We injected five larvae in triplicate for each of the four dilutions for each compound. Larvae injected with different dilutions of DMSO (10^–1, 10^–2, and 10^–3) were included as negative controls. Following injection, the larvae were incubated at 30 °C and monitored every 24 h for 6 days. Larval performance was assessed according to the G. mellonella Health Index Scoring System.[111] The experiments were repeated over three separate days for biological triplicates.

[3] = Stability by NMR / UV-vis; assay type: physicochemical; conditions: for stability in DMSO solution, NMR or UV–vis spectra: after 24 h; for stability of solid samples, NMR spectra: room temperature, protected from light, 2 years
Experimental: The ligands for these complexes (Ligand-Ag1 and Ligand-Ag2 in the SI) were originally studied for their solvatochromism and were later coordinated with silver to investigate their potential antimicrobial activity.[84] The carboxylate ion is able to coordinate to silver with monodentate, chelating, and/or bridging modes. […] The stability of complexes Ag1 and Ag2 was assessed.
One concern with Pt1 is its potential stability under biological conditions. […] Future work will be aimed toward more comprehensive examinations of the chemical and biological stability of these and related compounds, as well as investigations into their mode of action.

[4] = test system: Candida glabrata ATCC 90030 NCCLS 84; test: Antifungal MIC assay, extended panel; assay type: cell-based; conditions: extended panel; 50% inhibition, MIC score 2
[5] = test system: Candida tropicalis ATCC 750; test: Antifungal MIC assay, extended panel; assay type: cell-based; conditions: extended panel; 50% inhibition, MIC score 2
[6] = test system: Cryptococcus deuterogattii CBS7750 VGII; Serotype B; test: Antifungal MIC assay, extended panel; assay type: cell-based; conditions: extended panel; 50% inhibition, MIC score 2
[7] = test system: Cryptococcus deuterogattii ATCC 32609 VGII; test: Antifungal MIC assay, extended panel; assay type: cell-based; conditions: extended panel; 50% inhibition, MIC score 2
[8] = test system: C. albicans (ATCC 90028); test: Galleria mellonella infection (survival) assay; assay type: in vivo, Candida albicans in Galleria mellonella larvae; conditions: G. mellonella inoculated with C. albicans, 10 μL compound solution, 5 days, vs untreated control
Experimental: In an initial survival assay, G. mellonella larvae were inoculated with C. albicans (ATCC 90028). The larvae were then injected with 10 μL of the compound solution, and their survival was monitored for the next 5 days. Fluconazole and 10% DMSO injections were used as controls.
The globally available strains for C. albicans and C. neoformans, namely, ATCC 90028 and H99, respectively, were used to assess the antifungal potential of the panel of cobalt complex compounds in the G. mellonella insect model. Each strain was cultured on Sabouraud dextrose agar (SDA) for 24–48 h at 27 °C prior to inoculation. Yeast colonies were then suspended in a phosphate-buffered saline solution (PBS), and cells’ concentrations were adjusted using a Neubauer counting chamber to 5 × 10^7 cells for ATCC 90028 and 1 × 10^8 cells for H99. Compounds were prepared by dissolving in 100% dimethylsulfoxide (DMSO) to 4 or 10 mM depending on compound solubility before being further diluted with water to 0.4 or 1 mM for injection into larvae.
Each group of larvae was subsequently incubated at 37 °C for 2 h in 90 mm Petri dishes. After incubation, larvae were injected with 10 μL of the compound into the last right pro-leg and returned to Petri dishes to incubate at 37 °C for 5 days. In addition to the panel of metal compounds, fluconazole (FLC) was included as a positive control (1 and 0.4 mM) and reference antifungal. Larvae inoculated with just the fungal strains and the fungal strains with 10% DMSO were also included as comparison groups. Larvae injected concurrently with PBS instead of fungal inoculum and compounds were used as negative controls. All larvae were checked daily for survival.

[9] = test system: C. albicans (ATCC 90028); test: Galleria mellonella infection (log CFU reduction) assay; assay type: in vivo, Candida albicans in Galleria mellonella larvae; conditions: 1 mM, 10 μL; Pt1 19 mg/kg, Pt2 28 mg/kg, fluconazole 12 mg/kg; 24 h at 37 °C; vs 10% DMSO control
Experimental: To quantify the possible protective effect of Pt1 and Pt2 in G. mellonella challenged with C. albicans, we conducted a CFU reduction assay with these compounds. Briefly, G. mellonella larvae were inoculated with C. albicans (ATCC 90028) and incubated for 2 h at 37 °C. The larvae were then injected with 10 μL of the corresponding compound solution (1 mM) or control (same concentration and injection volume) and incubated for 24 h at 37 °C. The larvae were then anesthetized, macerated, and serially diluted onto SDA (Sabouraud dextrose agar) plates. After 48 h of incubation, the CFUs were counted.
A log CFU reduction assay was conducted for two compounds and two control groups. […] Fluconazole (1 mM) and 10% DMSO were used once again as the control groups. Fifteen G. mellonella larvae (200–250 mg) per test group were selected and inoculated with 10 μL of C. albicans at a concentration of 5 × 10^7 cells/mL and incubated on 90 mm Petri dishes in groups of five larvae for 2 h at 37 °C. Larvae were then subsequently injected with 10 μL of the corresponding test compound or control and returned to Petri dishes to incubate for 24 h at 37 °C.
Larvae were then anesthetized on ice for 5 to 10 min before being placed in individual prefilled 2 mL tubes with 3.0 mm diameter zirconium beads with 1000 μL of PBS. They were then macerated briefly using the BeadBug 6 Homogenizer (Benchmark Scientific, USA) in two 45 s intervals at 4350 rpm. After homogenization, serial dilutions of 1:100, 1:1000, and 1:10,000 were then made for each larva/tube, and 100 μL of the dilution was spread plated onto SDA plates with 50 μg/mL chloramphenicol. Plates were then incubated at 27 °C for 48 h before CFUs were counted.
A one-way ANOVA was conducted to compare the CFU counts for Pt1, Pt2, and both controls. After a significant difference was observed between the groups, a subsequent Tukey’s pairwise test was used to compare the individual test groups with each other.

[10] = test system: MRSA; parameters: method as in PMID 34018686; conditions: G. mellonella infected with MRSA; cited from earlier work

SMILES	MIC50 Cryptococcus neoformans ATCC 208821 [1] [nM]	stability in DMSO solution, NMR or UV–vis spectra [3]	stability of solid samples, NMR spectra [3]	MIC50 Candida glabrata ATCC 90030 [4] [nM]	MIC50 Candida tropicalis ATCC 750 [5] [nM]	MIC50 Cryptococcus deuterogattii CBS7750 [6] [nM]	MIC50 Cryptococcus deuterogattii ATCC 32609 [7] [nM]	MIC [1] [nM]	MIC Cryptococcus neoformans ATCC 208821 [1] [nM]	MIC Cn [1]	toxicity [2]	larva survival [8]	reduction in CFUs [9]	stability in DMSO, 1H NMR spectrum ([3]; 7 days at room temperature)	reduction in bacterial load [10]
CC(C)C([O][Pt][Cl])C1=CCCC=CCC1 (centres unmarked) [Pt4]									≤780 to 1560	1250 nM	nontoxic				
CC(=NN=C(N)[S-])C(C)=NN=C(N)[S-].O=[N+]([O-])[O-].[Co+3].c1c[nH]cn1.c1c[nH]cn1 [Co1]									390 to 780	0.5 µg/mL	nontoxic				
C1=CCCC=CCC1.[I][Pt][I] [Pt2]									1560 to 3130	1250 nM	nontoxic	significant larva survival; also recorded: showed some efficacy	CFUs comparable to the DMSO control		
C1=CCCC=CCC1.[Cl][Pt][Cl] [Pt1]									1560 to 3130	2500 nM	nontoxic	significant larva survival; also recorded: showed some efficacy	0.7 log10	no changes of the ^1H NMR spectrum	did not elicit a significant reduction in bacterial load

Continued, in another order:

MIC50 Cryptococcus neoformans ATCC 208821 [1] [nM]	stability in DMSO solution, NMR or UV–vis spectra [3]	stability of solid samples, NMR spectra [3]	MIC50 Candida glabrata ATCC 90030 [4] [nM]	MIC50 Candida tropicalis ATCC 750 [5] [nM]	MIC50 Cryptococcus deuterogattii CBS7750 [6] [nM]	MIC50 Cryptococcus deuterogattii ATCC 32609 [7] [nM]	MIC [1] [nM]	SMILES	MIC Cryptococcus neoformans ATCC 208821 [1] [nM]	MIC Cn [1]	toxicity [2]	larva survival [8]	reduction in CFUs [9]	stability in DMSO, 1H NMR spectrum ([3]; 7 days at room temperature)	reduction in bacterial load [10]
≤6 to 98	no changes	identical NMR spectra	6 to 195	≤6 to 49	≤6 to 49	≤6 to 98		O=C([O][Ag])c1ccc(N2N=C(/C=C/C=C/c3ccccc3)CC2/C=C/c2ccccc2)cc1.O=C([O][Ag])c1ccc(N2N=C(/C=C/C=C/c3ccccc3)CC2/C=C/c2ccccc2)cc1 (racemic) [Ag2, 1-(4-Carboxyphenyl)-3-{(1E,3E)-4-phenylbuta-1,3-dien-1-yl}-5-{(E)-styryl}-2-pyrazoline silver(I) complex]	≤6 to 98	≤0.25 µg/mL	nontoxic				
≤ 6			12 to 49	≤6 to 49	24 to 98	24	≤6	Cc1ccc2ccc3ccc(C)nc3c2n1.Cc1ccc2ccc3ccc(C)nc3c2n1.O=C([O][Eu]([O]C(=O)c1ccccc1F)[O]C(=O)c1ccccc1F)c1ccccc1F [Eu1]			nontoxic				
≤ 6	no changes	identical NMR spectra	≤ 6	≤ 6	≤ 6	≤6 to 24	≤6	COc1ccc(/C=C/C2=NN(c3ccc(C(=O)[O][Ag])cc3)C(c3ccc(OC)c(OC)c3)C2)cc1OC.COc1ccc(/C=C/C2=NN(c3ccc(C(=O)[O][Ag])cc3)C(c3ccc(OC)c(OC)c3)C2)cc1OC (racemic) [Ag1, (Ε)-1-(4-Carboxyphenyl)-5-(3,4-dimethoxyphenyl)-3-(3,4-dimethoxystyryl)-2-pyrazoline silver(I) complex]		≤0.25 µg/mL					
